{"source": "patent US20250171465A1", "about": "“AKT INHIBITORS” (Stablix, Inc., priority 2023, published 2025)"}
{"tested_on": "KU1919.1", "experiment": "Cell Titer Glo (CTG) proliferation assay, KU1919", "assay_type": "cell-based", "details": "Homo sapiens, KU-19-19; KU1919.1 cells, 72.0 hrs.; read-out: AVE CTG Proliferation KU1919.1 72.0 hrs.", "protocol": "Seed cells in 40 μL of cell culture media into each well of 384-well cell culture plate, spin them at room temperature at 1,000 RPM for 1 minute and then transfer the plates into 37° C. 5% CO2 incubator overnight. Next day, treat cells with 40 nL of diluted compound and return to incubator. After compound treatment for 3 days, Add 30 μL of CellTiter-Glo reagent (Promega) into each well to be detected. Then place the plates at room temperature for 30 min followed by reading on EnVision. Inhibition activity calculated as % DMSO=100×(LumSample-Lum low control)/(Lum high control-Lum low control) where high control is from cells treated with 0.1% DMSO and Low control obtained from PBS only. Use XLFit (equation 201) to calculate IC50 (A+ ((B−A)/(1[…]((x/C)^D)))) where A: Bottom, B: Top, C: IC50, D: Slope.", "units": {"IC50": "nM"}}
{"smiles": "NC1(C(=O)N[C@@H](CCN2CCC(OC3CCN(C(=O)[C@H](NC(=O)c4cccc(C5CCN(C(=O)C6CC6)CC5)c4F)C4CCCCC4)CC3)CC2)c2ccc(Cl)cc2)CCN(c2ncnc3[nH]ccc23)CC1", "note": "[Compound I-288]", "IC50": "1000 to 5000"}
{"smiles": "C[C@@H]1C[C@@H](O)c2ncnc(N3CCN(C(=O)[C@H](CN4CCC(OC5CCN(C(=O)[C@H](NC(=O)c6cccc(C7CCCN(C(=O)C89CC(C8)C9)C7)c6F)C6CCCCC6)CC5)CC4)c4ccc(Cl)cc4)CC3)c21", "note": "(stereo partly shown) [Compound I-292]", "IC50": "1000 to 5000"}
{"smiles": "C[C@@H]1C[C@@H](O)c2ncnc(N3CCN(C(=O)[C@@H](CCN4CCC(CN5CCN(C(=O)[C@H](NC(=O)c6cccc(C7CCCN(C(=O)CNC8CC8)C7)c6)C6CCCCC6)CC5)CC4)c4ccc(Cl)cc4)CC3)c21", "note": "(stereo partly shown) [Compound I-273]", "IC50": "500 to 1000"}
{"smiles": "NC1(C(=O)N[C@@H](CCOCCN2CCC(OC3CCN(C(=O)[C@H](NC(=O)c4cccc(C5CCCN(C(=O)CNC6CC6)C5)c4)C4CCCCC4)CC3)CC2)c2ccc(Cl)cc2)CCN(c2ncnc3[nH]ccc23)CC1", "note": "(stereo partly shown) [Compound I-295]", "IC50": "1000 to 5000"}
{"smiles": "NC1(C(=O)N[C@@H](CCOCCN2CCC(OC3CCN(C(=O)[C@H](NC(=O)c4cccc(C5CCCN(C(=O)CNCc6ccc(F)cc6F)C5)c4)C4CCCCC4)CC3)CC2)c2ccc(Cl)cc2)CCN(c2ncnc3[nH]ccc23)CC1", "note": "(stereo partly shown) [Compound I-236]", "IC50": "500 to 1000"}
{"smiles": "NC1(C(=O)N[C@@H](CCN2CCC(OC3CCN(C(=O)[C@H](NC(=O)c4cccc(C5CN(C(=O)C6CC6)C5)c4)C4CCCCC4)CC3)CC2)c2ccc(Cl)cc2)CCN(c2ncnc3[nH]ccc23)CC1", "note": "[Compound I-243]", "IC50": "1000 to 5000"}
{"smiles": "NC1(C(=O)N[C@@H](CCN2CCC(OC3CCN(C(=O)[C@H](NC(=O)c4cccc(C5CN(C(=O)CNC6CC6)C5)c4)C4CCCCC4)CC3)CC2)c2ccc(Cl)cc2)CCN(c2ncnc3[nH]ccc23)CC1", "note": "[Compound I-244]", "IC50": "1000 to 5000"}
{"smiles": "NC1(C(=O)N[C@@H](CCOCCCCCNC(=O)[C@H](NC(=O)c2cccc(C3CCCN(C(=O)CNC4CC4)C3)c2)C2CCCCC2)c2ccc(Cl)cc2)CCN(c2ncnc3[nH]ccc23)CC1", "note": "(stereo partly shown) [Compound I-298]", "IC50": "1000 to 5000"}
{"smiles": "NC1(C(=O)N[C@@H](CCNS(=O)(=O)CCCCNC(=O)[C@H](NC(=O)c2cccc(C3CN(C(=O)CNCc4ccc(F)cc4F)C3)c2)C2CCCCC2)c2ccc(Cl)cc2)CCN(c2ncnc3[nH]ccc23)CC1", "note": "[Compound I-238]", "IC50": "> 10000"}
{"smiles": "NC1(C(=O)N[C@@H](CCN2CCC(OC3CCN(C(=O)[C@H](NC(=O)c4ccc(C5CCN(C(=O)C6CC6)CC5)cc4)C4CCCCC4)CC3)CC2)c2ccc(Cl)cc2)CCN(c2ncnc3[nH]ccc23)CC1", "note": "[Compound I-231]", "IC50": "1000 to 5000"}
{"smiles": "C[C@@H]1C[C@@H](O)c2ncnc(N3CCN(C(=O)[C@H](CCN4CCC(CN5CCN(C(=O)[C@H](NC(=O)c6cccc(C7CCCN(C(=O)C8CC8)C7)c6)C6CCCCC6)CC5)CC4)c4ccc(Cl)cc4)CC3)c21", "note": "(stereo partly shown) [Compound I-265]", "IC50": "1000 to 5000"}
{"smiles": "CCc1cccc(-c2cnc(C(=O)N3CCN(CC4CCN(CC(=O)NCCNC[C@@H](C(=O)N5CCN(c6ncnc7c6[C@H](C)C[C@H]7O)CC5)c5ccc(Cl)cc5)CC4)CC3)c(NC(=O)CNCc3ccncn3)c2)c1", "note": "[Compound I-166]", "IC50": "1000 to 5000"}
{"smiles": "C[C@@H]1C[C@@H](O)c2ncnc(N3CCN(C(=O)[C@H](CNCCNC(=O)CN4CCC(OC5CCN(C(=O)[C@H](NC(=O)c6cccc(C7CCCN(C(=O)C8CC8)C7)c6F)C6CCCCC6)CC5)CC4)c4ccc(Cl)cc4)CC3)c21", "note": "(stereo partly shown) [Compound I-264]", "IC50": "1000 to 5000"}
{"smiles": "C=CC(=O)N1CCN(c2ccc(CCC(=O)N3CCN(CC4CCN(CC[C@H](NC(=O)C5(N)CCN(c6ncnc7[nH]ccc67)CC5)c5ccc(Cl)cc5)CC4)CC3)o2)C(=O)C1", "note": "[Compound I-286]", "IC50": "1000 to 5000"}
{"smiles": "C=CC(=O)N1CCN(c2ccc(CCC(=O)N3CCC(OC4CCN(CC[C@H](NC(=O)C5(N)CCN(c6ncnc7[nH]ccc67)CC5)c5ccc(Cl)cc5)CC4)CC3)o2)C(=O)C1", "note": "[Compound I-285]", "IC50": "> 10000"}
{"smiles": "NC1(C(=O)N[C@@H](CCN2CCC(OC3CCN(C(=O)[C@H](NC(=O)c4cc(C5CCCN(C(=O)C6CC6)C5)ccc4F)C4CCCCC4)CC3)CC2)c2ccc(Cl)cc2)CCN(c2ncnc3[nH]ccc23)CC1", "note": "(stereo partly shown) [Compound I-221]", "IC50": "1000 to 5000"}
